According to article PMC12073635, “Synthesis of Tricyclic and Tetracyclic Lactone Derivatives of Thieno[2,3-b]pyrazine or Thieno[2,3-b]quinoline: Preliminary Antitumor and Antiparasitic Activity Evaluation” (Molecules, 2025):

Experiments:
[1] = system: MCF-7 (breast adenocarcinoma) cells; assay: SRB cell growth inhibition assay, MCF-7; type: cell-based, human; settings: mean ± standard deviation
Description: (§1) The antitumor potential of the Sonogashira coupling products 2, tricyclic lactones 3 and 5, and tetracyclic lactones 7 was evaluated using the sulforhodamine B (SRB) assay against five human tumor cell lines: colorectal adenocarcinoma (CaCo-2), breast adenocarcinoma (MCF-7), gastric adenocarcinoma (AGS), cervical carcinoma (HeLa), and non-small cell lung cancer (NCI-H460). A primary pig liver cell culture (PLP2) was used to assess the toxicity of compounds.
(§2) The human tumor cell lines used were CaCo-2 (colorectal adenocarcinoma), MCF-7 (breast adenocarcinoma), AGS (gastric adenocarcinoma), HeLa (cervical carcinoma), NCI-H460 (lung carcinoma). Non-tumor cell lines were also tested: PLP2 (primary pig liver culture). All the cell lines were maintained in RPMI-1640 medium supplemented with 10% fetal bovine serum, glutamine (2 mM), penicillin (100 U/mL), and streptomycin ([…]), with the exception of PLP2, which was maintained in DMEM medium supplemented with fetal bovine serum (10%), glutamine and antibiotics. The culture flasks were incubated at 37 °C and with 5% CO2, under a humid atmosphere. The cells were used only when they had 70 to 80% confluence. A known mass of each compound was dissolved in DMSO/H2O (1:1, 1 mL), in order to obtain the stock solutions with a concentration of 1 mM. […] Each compound concentration (10 μL) was incubated with the cell suspension (190 μL) of the cell lines tested in 96-well microplates for 72 h. The microplates were incubated at 37 °C and with 5% CO2 in a humid atmosphere after checking the adherence of the cells. All cell lines were tested at a concentration of 10,000 cells/well. After the incubation period, the cells were treated: TCA (10% w/v; 100 μL) was previously cooled, and plates were incubated for 1 h at 4 °C, washed with water, and, after drying, a SRB solution (0.057%, m/v; 100 μL) was added and left to stand at room temperature for 30 min. To remove non-adhered SRB, plates were washed three times with a solution of acetic acid (1% v/v) and placed to dry. Finally, an adhered SRB was solubilized with Tris (10 mM, 200 μL) and the absorbance at a wavelength of 540 nm was read in the Biotek ELX800 microplate reader. The results obtained by the SRB assay were expressed regarding the concentration compounds that can inhibit cell growth by 50%—GI50. Doxorubicin was used as a positive control.

[2] = system: AGS (gastric adenocarcinoma) cells; assay: SRB cell growth inhibition assay, AGS; type: cell-based; settings: Homo sapiens, 72 h, mean ± standard deviation
Description: as §1, §2

[3] = system: HeLa (cervical carcinoma) cells; assay: SRB cell growth inhibition assay, HeLa; type: cell-based; settings: Homo sapiens, 72 h, mean ± standard deviation
Description: as §1, §2

[4] = system: NCI-H460 (non-small cell lung cancer) cells; assay: SRB cell growth inhibition assay, NCI-H460; type: cell-based; settings: Homo sapiens, 72 h, mean ± standard deviation
Description: as §1, §2

[5] = system: PLP2 (primary pig liver cell culture); assay: SRB assay, toxicity in non-tumor PLP2 cells; type: cell-based; settings: at the GI50 concentrations
[6] = system: T. brucei Lister 427 bloodstream forms; assay: Resazurin-based anti-T. brucei assay; type: cell-based, Trypanosoma brucei; settings: 72 h, dose-response; for IC50: Trypanosoma brucei
Description: The antiparasitic activity of compounds 2c–g, 3a, 5a and 7 was evaluated at a single concentration of 20 μM, against Trypanosoma brucei (T. brucei) and Leishmania infantum (L. infantum) promastigotes. The results are shown in Table 9 together with the cytotoxicity data (CC50) in THP-1–derived macrophages cells.
T. brucei Lister 427 bloodstream forms were grown in a humidified incubator at 37 °C, 5% CO2 in complete HMI-9 medium 1 supplemented with 10% heat-inactivated Fetal Bovine Serum (FBS) and 100 UI/mL penicillin/streptomycin. Parasites maintenance was performed in T25 ventilated flasks by subpassage at a concentration of 1 × 10^4/mL every 2 days on T25 ventilated flasks.
The efficacy of compounds against T. brucei bloodstream forms was evaluated using a modified resazurin-based assay previously described in the literature. Parasites were added to 100 µL of serial dilutions of compounds in supplemented complete medium at a cell density of 5 × 10^3/mL for. As a quality control, a dose–response curve for the antitrypanosomal pentamidine was included in all the assays. The final volume of the assay is 200 µL/well. Each condition was carried out in duplicate. Following 72 h incubation at the specific conditions for T. brucei, 20 µL of a 0.5 mM resazurin solution was added and plates were incubated for a further 4 h under the same conditions. Fluorescence was measured at 544 nm and 590 nm excitation and emission wavelength, respectively, using a Synergy 2 Multi-Mode Reader (Biotek, Winooski, VT, USA). Results were shown as % of parasite growth inhibition compared to control (untreated parasites) and represent the average of at least three independent experiments. The effect was evaluated by the determination of the IC50 value (concentration required to inhibit growth in 50%) and calculated by non-linear regression curves using GraphPad Prism version 8.1.1 for Windows (GraphPad Software, San Diego CA, USA).

Compound | GI50 ([1]; 72 h) [µM] | GI50 ([1]; Homo sapiens, MCF7, 72 h) [µM] | GI50 [2] [µM] | GI50 [3] [µM] | GI50 [4] [µM] | toxicity in PLP2 cells (in words) [5] | T. brucei IC50 [6] | IC50 [6] [µM]
COC(=O)c1sc2nccnc2c1C#Cc1ccccn1 [Compound 2f, Methyl 7-(pyridin-2-ylethynyl)thieno[2,3-b]pyrazine-6-carboxylate] | 4.08 ± 0.27 | < 5 | 9.25 ± 0.61 | 5.44 ± 4.31 | 9.33 ± 4.21 | without significant toxicity | low μM range | 6.43
O=c1oc(-c2ccccn2)cc2c1sc1nccnc12 [Compound 3f, 8-(Pyridin-2-yl)-6H-pyrano[4′,3′:4,5]thieno[2,3-b]pyrazin-6-one] | – | 59.3 ± 2.45 | 42.6 ± 3.96 | 58.8 ± 2.44 | 61.2 ± 4.17 | low toxicity | – | < 11
